Laboratory results taken from ChEMBL document CHEMBL1781913, “Design and synthesis of 3-alkyl-2-aryl-1,3-thiazinan-4-one derivatives as selective cyclooxygenase (COX-2) inhibitors” (Bioorg Med Chem Lett, 2009).

biological target: T1, Prostaglandin G/H synthase 1 (Ovis aries, UniProt P05979); assay: Inhibition of ovine COX1 by chemiluminescent assay
T1 sequence (P05979 whole entry): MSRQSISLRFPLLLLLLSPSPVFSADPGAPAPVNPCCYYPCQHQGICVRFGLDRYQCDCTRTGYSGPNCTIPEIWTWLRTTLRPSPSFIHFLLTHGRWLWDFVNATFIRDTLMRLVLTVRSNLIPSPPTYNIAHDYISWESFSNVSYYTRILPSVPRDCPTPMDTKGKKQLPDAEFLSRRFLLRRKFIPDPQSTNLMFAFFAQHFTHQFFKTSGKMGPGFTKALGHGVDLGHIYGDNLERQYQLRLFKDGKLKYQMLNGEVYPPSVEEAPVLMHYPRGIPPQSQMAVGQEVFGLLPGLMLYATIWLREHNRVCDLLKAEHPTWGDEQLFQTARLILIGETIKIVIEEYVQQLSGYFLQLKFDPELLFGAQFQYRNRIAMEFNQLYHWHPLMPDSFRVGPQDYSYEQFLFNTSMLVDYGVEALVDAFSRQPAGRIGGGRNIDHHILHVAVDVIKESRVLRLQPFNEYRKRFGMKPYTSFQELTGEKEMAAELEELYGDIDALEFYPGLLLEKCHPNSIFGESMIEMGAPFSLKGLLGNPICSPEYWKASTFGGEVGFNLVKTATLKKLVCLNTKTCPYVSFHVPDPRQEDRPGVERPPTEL

`CCCN1C(=O)CCSC1c1ccc(S(C)(=O)=O)cc1` (stereo not given) and `CCCCN1C(=O)CCSC1c1ccc(S(C)(=O)=O)cc1` (stereo not given) are within 1.5-fold of each other in IC50: 14.1 µM for the first, 14.8 µM for the second.

`CCCCCN1C(=O)CCSC1c1ccc(S(C)(=O)=O)cc1` (stereo not given) and `CS(=O)(=O)c1ccc(C2SCCC(=O)N2CCc2ccccc2)cc1` (stereo not given) are within 1.5-fold of each other in IC50: 14.9 µM for the first, 16 µM for the second.

`CS(=O)(=O)c1ccc(C2SCCC(=O)N2Cc2ccccc2)cc1` (stereo not given) gave an IC50 of 17.2 µM.
